Assay: Plasma lipid levels after 4-week treatment
Format: in vivo, cynomolgus monkey
Settings: after 4 wks, SARM‐2f 1, 3, 10 mg/kg daily p.o., vs vehicle
Experimental: The monkeys were divided into five groups by weight randomization (MiTOX system ver2.0, Mitsui E & S Systems Research Inc) on the last day of the habituation period. SARM‐2f was orally administered at daily doses of 1, 3, or 10 mg/kg for 4 weeks between 9:00 and 11:00 hours, using 0.5% w/v methylcellulose as the vehicle. TE was injected intramuscularly on Day 0 and Day 13; the dosing start was set at Day 0 at a dose of 2 mg/kg using sesame oil as the vehicle. The route of administration and dose of TE was selected according to the route and dose mentioned in the clinical indications. BW was measured every week before dosing (between 8:30 and 9:00 hours), and LBM was measured every 2 weeks after dosing and before feeding (between 11:30 and 14:30 hours) using an X‐ray bone density measuring device (Discovery, HOLOGIC USA). Blood collection for lipid profiles was conducted on the day after the completion of the four‐week multiple administration of SARM‐2f or TE. Plasma levels of total cholesterol (T‐chol), HDL‐c, low‐density lipoprotein cholesterol (LDL‐c), triglyceride (TG), alanine aminotransferase (ALT), and […] (AST) were measured by an automatic JCA‐BM8 analysis system (JEOL Ltd.). Plasma lipoprotein (a) (Lp (a)) levels were measured using a multiplate absorbance measuring system (Multiscan Ascent, Thermo Fisher Scientific KK). […]

CC[C@H]1[C@@H](O)CC(=O)N1c1ccc(C#N)c(C(F)(F)F)c1 [SARM‐2f, 4′‐[(2S,3S)‐2‐Ethyl‐3‐hydroxy‐5‐oxopyrrolidin‐1‐yl]‐2′‐(trifluoromethyl) benzonitrile]
Blood level of HDL‐c (TE 2 mg/kg every 2 wks): only reduced in animals treated with 3 or 10 mg/kg
Blood level of LDL‐c (TE 2 mg/kg every 2 wks): lower
Blood level of TG (TE 2 mg/kg every 2 wks): lower
Blood level of T‐chol (TE 2 mg/kg every 2 wks): lower
Lp (a) protein level (TE 2 mg/kg every 2 wks): showed a tendency to be decreased
HDL‐c/LDL‐c ratio: did not cause any significant change

Reference: publication PMC7005530, “A selective androgen receptor modulator SARM‐2f activates androgen receptor, increases lean body mass, and suppresses blood lipid levels in cynomolgus monkeys” (Pharmacology Research & Perspectives, 2020)
